Test results published in patent US6914045B2, “Glycopeptide antibiotics” (Wyeth Holdings Corporation, priority 2001, dated 2005).

Legend:
Enterococcus sp. = assay: in vitro antibacterial evaluation, MIC by broth dilution; assay type: cell-based; conditions: broth dilution, 18 hours at 35° C.
Procedure, shortened: (§1)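 Broth dilution per NCCLS M7-A2 in Mueller-Hinton II medium, inoculum 5×10^5 CFU/mL, antibiotic range 64-0.06 μg/mL. MIC taken as lowest concentration inhibiting growth; Gram-positive panel includes recent clinical isolates resistant to methicillin, penicillin and/or vancomycin.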

Escherichia coli = assay: as above; assay type: cell-based; conditions: 18 hours at 35° C.
Procedure, shortened: as §1

Staphylococcus sp. = assay: as above; assay type: cell-based; conditions: broth dilution, 18 hours at 35° C.
Procedure, shortened: as §1

Streptococcus sp. = assay: as above; assay type: cell-based; conditions: broth dilution, 18 hours at 35° C.
Procedure, shortened: as §1

[1] = tested on: Staphylococcus aureus-SMITH (GC 4543); assay: acute lethal infection in mice; assay type: in vivo; conditions: acute lethal infection, female CD-1 mice, intraperitoneal challenge, intravenous 30 min. after infection, 7 day survival
Protocol: Methods for in Vivo Antibacterial Evaluation
The therapeutic effects of glycopeptide antibiotics of Formula I are determined against acute lethal infections with S. aureus (strain Smith), a penicillin resistant strain of S. pneumoniae (strain GC 1894), and a vancomycin resistant strain of E. fecalis (strain GC 6189 and GC 2246). Female mice, CD-1 (Charles River Laboratories), 20+/−2 gm, are challenged by intraperitoneal injection of sufficient bacteria (suspended in /trypticase Soy Broth or hog gastric mucin) to kill non-treated controls within 24-48 hr. Antibacterial agents, contained in 0.2 mL of saline or 5% dextrose solution, are administered intravenously 30 min. after infection. Five mice are treated at each dose level. The 7 day survival ratios from 3 separate tests are pooled for calculation of median effective dose (ED50).

COc1ccc(CC2OCC3OC(OC4C(CO)OC(Oc5ccc(CC6NC(=O)C(C(C)c7ccccc7)NC(=O)CNC(=O)C(CO)NC(=O)C(C(O)C7CNC(=N)N7C7OC(CO)C(O)C(O)C7O)NC(=O)C(C(O)C7CNC(=N)N7)NC6=O)cc5)C(O)C4O)C(O)C(O)C3O2)cc1 (stereo not drawn) [Example 103, Cyco[glycyl-β-methylphenylalanyl-O-[4-O-[4,6-O-(4-methoxyphenethylidene)hexopyranosyl]-hexopyranosyl]tyrosyl-3-(2-iminoimidazolidin-4-yl)seryl-3-(3-hexopyranosyl-2-iminoimidazolidin-4-yl)serylseryl]]
64 mg/L: MIC Escherichia coli (ATCC 25922) (Escherichia coli; strain ATCC 25922) | MIC Escherichia coli (GC 4559) (Escherichia coli; strain GC 4559)
8 mg/L: MIC Enterococcus avium (GC 4558) (Enterococcus sp.; Enterococcus avium (GC 4558)) | MIC Enterococcus faecalis (GC 2691) (Enterococcus sp.; Enterococcus faecalis (GC 2691)) | MIC Enterococcus faecalis (GC 3059) (Enterococcus sp.; Enterococcus faecalis (GC 3059)) | MIC Enterococcus faecalis (GC 4552) (Enterococcus sp.; Enterococcus faecalis (GC 4552)) | MIC Enterococcus faecalis (GC 4553) (Enterococcus sp.; Enterococcus faecalis (GC 4553)) | MIC Enterococcus faecalis (GC 4554) (Enterococcus sp.; Enterococcus faecalis (GC 4554)) | MIC Enterococcus faecalis (GC 2691) (Enterococcus sp.; strain GC 2691) | MIC Enterococcus faecalis (GC 3059) (Enterococcus sp.; strain GC 3059) | MIC Enterococcus faecalis (GC 4552) (Enterococcus sp.; strain GC 4552) | MIC Enterococcus faecalis (GC 4553) (Enterococcus sp.; strain GC 4553) | MIC Enterococcus faecalis (GC 4554) (Enterococcus sp.; strain GC 4554) | MIC Enterococcus avium (GC 4558) (Enterococcus sp.; strain GC 4558)
4 mg/L: MIC Enterococcus faecalis (ATCC 29212) (Enterococcus sp.; Enterococcus faecalis (ATCC 29212)) | MIC Enterococcus faecalis (GC 2242) (Enterococcus sp.; Enterococcus faecalis (GC 2242)) | MIC Enterococcus faecalis (GC 6189) (Enterococcus sp.; Enterococcus faecalis (GC 6189)) | MIC Enterococcus faecium (GC 2243) (Enterococcus sp.; Enterococcus faecium (GC 2243)) | MIC Enterococcus faecium (GC 4556) (Enterococcus sp.; Enterococcus faecium (GC 4556)) | MIC Enterococcus faecalis (ATCC 29212) (Enterococcus sp.; strain ATCC 29212) | MIC Enterococcus faecalis (GC 2242) (Enterococcus sp.; strain GC 2242) | MIC Enterococcus faecium (GC 2243) (Enterococcus sp.; strain GC 2243) | MIC Enterococcus faecium (GC 4556) (Enterococcus sp.; strain GC 4556) | MIC Enterococcus faecalis (GC 6189) (Enterococcus sp.; strain GC 6189)
0.28 mg/kg: median effective dose (ED50), Staphylococcus aureus-SMITH (GC 4543) [1]
0.12 mg/L: MIC Streptococcus pneumoniae (ATCC 6301) (Streptococcus sp.; Streptococcus pneumoniae (ATCC 6301)) | MIC Streptococcus pneumoniae (GC 1894) (Streptococcus sp.; Streptococcus pneumoniae (GC 1894)) | MIC Streptococcus pneumoniae (GC 4565) (Streptococcus sp.; Streptococcus pneumoniae (GC 4565)) | MIC Streptococcus pneumoniae (ATCC 6301) (Streptococcus sp.; strain ATCC 6301) | MIC Streptococcus pneumoniae (GC 1894) (Streptococcus sp.; strain GC 1894) | MIC Streptococcus pneumoniae (GC 4565) (Streptococcus sp.; strain GC 4565)
0.25 mg/L: MIC Streptococcus pyogenes (GC 4563) (Streptococcus sp.; Streptococcus pyogenes (GC 4563)) | MIC Streptococcus pyogenes (GC 4563) (Streptococcus sp.; strain GC 4563)
0.5 mg/L: MIC Streptococcus agalactiae (GC 4564) (Streptococcus sp.; Streptococcus agalactiae (GC 4564)) | MIC Streptococcus agalactiae (GC 4564) (Streptococcus sp.; strain GC 4564)
1 mg/L: MIC Escherichia coli (GC 4560) (Escherichia coli; strain GC 4560) | MIC Coagulase Negative Staphylococcus (GC 4548) (Staphylococcus sp.) | MIC Coagulase Negative Staphylococcus (GC 4549) (Staphylococcus sp.) | MIC Coagulase Negative Staphylococcus (GC 6257) (Staphylococcus sp.) | MIC Staphylococcus aureus (GC 3051) (Staphylococcus sp.) | MIC Staphylococcus aureus (GC 4545) (Staphylococcus sp.) | MIC Staphylococcus aureus-SMITH (GC 4543) (Staphylococcus sp.) | MIC Staphylococcus haemolyticus (GC 4546) (Staphylococcus sp.) | MIC Staphylococcus haemolyticus (GC 4546) (Staphylococcus sp.; strain GC 4546) | MIC Coagulase Negative Staphylococcus (GC 4548) (Staphylococcus sp.; strain GC 4548) | MIC Coagulase Negative Staphylococcus (GC 4549) (Staphylococcus sp.; strain GC 4549) | MIC Coagulase Negative Staphylococcus (GC 6257) (Staphylococcus sp.; strain GC 6257) | MIC Staphylococcus aureus-SMITH (GC 4543) (Staphylococcus sp.; strain SMITH GC 4543) | MIC Staphylococcus aureus (GC 3051) (Staphylococcus sp.; strain GC 3051) | MIC Staphylococcus aureus (GC 4545) (Staphylococcus sp.; strain GC 4545)
2 mg/L: MIC Enterococcus faecium (GC 4557) (Enterococcus sp.; Enterococcus faecium (GC 4557)) | MIC Enterococcus faecium (GC 4557) (Enterococcus sp.; strain GC 4557) | MIC Coagulase Negative Staphylococcus (GC 4547) (Staphylococcus sp.) | MIC Coagulase Negative Staphylococcus (GC 4551) (Staphylococcus sp.) | MIC Staphylococcus aureus (ATCC 29213) (Staphylococcus sp.) | MIC Staphylococcus aureus (GC 1131) (Staphylococcus sp.) | MIC Staphylococcus aureus (GC 3053) (Staphylococcus sp.) | MIC Staphylococcus aureus (GC 4541) (Staphylococcus sp.) | MIC Staphylococcus aureus (GC 4542) (Staphylococcus sp.) | MIC Staphylococcus aureus (GC 4544) (Staphylococcus sp.) | MIC Coagulase Negative Staphylococcus (GC 4547) (Staphylococcus sp.; strain GC 4547) | MIC Coagulase Negative Staphylococcus (GC 4551) (Staphylococcus sp.; strain GC 4551) | MIC Staphylococcus aureus (ATCC 29213) (Staphylococcus sp.; strain ATCC 29213) | MIC Staphylococcus aureus (GC 1131) (Staphylococcus sp.; strain GC 1131) | MIC Staphylococcus aureus (GC 3053) (Staphylococcus sp.; strain GC 3053) | MIC Staphylococcus aureus (GC 4541) (Staphylococcus sp.; strain GC 4541) | MIC Staphylococcus aureus (GC 4542) (Staphylococcus sp.; strain GC 4542) | MIC Staphylococcus aureus (GC 4544) (Staphylococcus sp.; strain GC 4544)
